Legend:
[1] = Kinetics study of TCO-Tz click reaction by UV spectroscopy (540 nm); settings: MeCN, 20° C.
Procedure: FIG. 1: The kinetics of TCO E-02a and 3,6-di(pyridin-2-yl)-1,2,4,5-tetrazine with a concentration of 10 and 50 μM at 20° C. in MeCN.
The reaction rate in a TCO-Tz click reaction of E-02a was measured under similar conditions as described in Versteegen et al., Angewandte Chemie International Edition 2013, 52 (52), 14112-14116. The second order reaction constant of the reaction between 3,6-di(pyridin-2-yl)-1,2,4,5-tetrazine and E-02a was determined under second order conditions in MeCN at 20° C. by UV spectroscopy. A cuvette was filled with MeCN (2.8 mL) and equilibrated at 20° C. A stock solution of tetrazine in DMSO (100 μl) was added to the cuvette. The absorption of the tetrazine moiety was measured at 540 nm. Next, the cuvette was removed from the apparatus to add a stock solution of E-02a in DMSO (100 μl) and briefly mixed the solution by shaking the cuvette before placing it back into the apparatus. The absorption at 540 nm was measured for 15 minutes. From this absorption at 540 nm, the concentration of tetrazine was calculated using a molar absorption coefficient of ε=430 M^−1 cm^−1. […] TCO reactions known from the prior art (Versteegen et al., Angewandte Chemie International Edition 2013, 52 (52), 14112-14116, DOI: 10.1002/anie.201305969) were assessed at 83.3 μM and afforded a lower rate of 62, 5 M^−1s^−1 under similar conditions.

[2] = 19F-NMR kinetic study of click-to-release reaction (release of PFP)
Procedure: FIG. 2: ^19F-NMR kinetic study of the click-to-release reaction of 20 mM TCO (E-03a) with 3,6-di(pyridin-2-yl)-1,2,4,5-tetrazine at 20° C.
The ^19F NMR (377 MHz) spectrum of an NMR-tube filled with a solution of E-03a (5 mg, 1.0 equiv, 11.9 μmol) in CDCl3 (500 μl) was measured. Next, a solution of 3,6-di(pyridin-2-yl)-1,2,4,5-tetrazine (3.1 mg, 1.1 equiv, 13 μmol) in CDCl3 (100 μl) was added to the NMR tube. The tube was vigorously shaken and placed back in the NMR apparatus. The sample was measured within two minutes after the addition of the second compound. Every 48 seconds a measurement (number of scans: 4, relaxation delay: 5.8 see, range: −147.0 to −178.5 ppm) was taken of the sample. After 160 minutes the measurements were stopped.
Only after elevating the temperature to +10° C., the pentafluorophenyl carbonate was released from the conjugated product. Release of payload from compounds of the invention was not only found to be fast, but also complete. […] The fastest payload release observed with their compounds afforded less than 20% release over 250 minutes.

[3] = Stability test of TCO in deuterated PBS buffer at 37° C. followed by 1H-NMR; format: physicochemical; settings: covered from light
Procedure: An NMR tube was charged with a solution of E-04a (41 mg) in deuterated PBS buffer (500 μl). The NMR sample was placed in a water bath at 37° C. while being covered from light by aluminum foil.

[4] = Kinetics study of fluorophore (AMC) release, fluorescence, with BP tetrazine; settings: PBS pH=7.2, 37° C., first-order one phase fit
Procedure: (§1) A procedure adapted from prior art was followed (Fan, X. et al., Optimized tetrazine derivatives for rapid bioorthogonal decaging in living cells. Angew. Chem. 2016, 128 (45), 14252-14256.)
(§2) Stock solutions (all in DMSO) • Stock A (R): E-022a (10 mmolar) • Stock A (NR): E-022b (10 mmolar) • Stock B (DM): 3,6-Dimethyl-1,2,4,5-tetrazine (DM) (20 mmolar) • Stock B (BP): 3,6-Di-2-pyridyl-1,2,4,5-tetrazine (BP) (20 mmolar) • Stock PC: 7-Amino-4-methylcoumarin (10 mmolar) 2.5 μL of the tetrazine stock (DM or BP) was mixed with 395.5 μL of PBS (pH=7.2). 2 μL of the TCO stock (A (R) or A (NR)) was added to this. The reaction mixtures were incubated at 37° C. under mixing (300 rpm). Subsequently, the fluorescence (F1) was measured (ex: 380 nm, em. 450 nm) at certain time points after the addition of the TCO by aliquoting 30 μL in a 384 wells plate (Greiner, black non-binding flat bottom) and directly measuring with a Tecan Spark plate-reader. As control experiment the maximum amount of released AMC was measured (F2, Stock PC without tetrazine or TCO). […] The release efficiency (%) was calculated: F1/F2×100%. All experiments were executed in triplo and the data was processed using GraphPad Prism (version 9.0). The Kelim. values were determined by first-order exponential one phase decay approximations. […] For BP this value was 2.96*10^−6S^−1.

[5] = Kinetics study of fluorophore (AMC) release, fluorescence, with DM tetrazine; settings: PBS pH=7.2, 37° C.
Procedure: as §1, §2

[6] = Kinetics study of doxorubicin release by HPLC/LCMS; settings: PBS pH=7.2, 37° C., directly after addition of tetrazine
Procedure: Stock solutions (all in DMSO) • Stock E-025a: E-025a (10 mmolar) • Stock Ttz: 3,6-dimethyl-1,2,4,5-tetrazine (XA, 20 mmolar) Procedure: 100 μL of the TCO-Dox stock was added to 900 μL of PBS (pH=7.2) and HPLC analysis was done which only indicated starting material (t=13.08 min). Hereafter the reaction was incubated at 37° C. under mixing (300 rpm) and 500 μL of the Ttz stock was added. At certain time points after the addition of the Ttz the reaction mixture was analyzed by aliquoting 200 μL and analysis by HPLC/LCMS.

For `CCOC(=O)C1C2CC=CC(O)CCC21` (single isomer, unassigned) [E-02a], the “second order rate constant k2 (reaction rate) of click reaction” value ([1]; concentration 10 μM) was 249 M⁻¹ s⁻¹ and the “second order rate constant k2 (reaction rate) of click reaction” value ([1]; concentration 50 μM) was 437 M⁻¹ s⁻¹.
In the case of `CCOC(=O)[C@H]1[C@@H]2CCC(OC(=O)Oc3c(F)c(F)c(F)c(F)c3F)C=CC[C@@H]21` (stereo in doubt) [E-03b, ethyl (1S,5R,8R,9S, E)-5-(((perfluorophenoxy)carbonyl)oxy)bicyclo[6.1.0]non-3-ene-9-carboxylate], the “release rate compared with E-03a” value ([2]; E-03b used instead of E-03a) is reported as “several factors slower”.
In the case of `CCOC(=O)[C@H]1[C@@H]2CC[C@@H](OC(=O)Oc3c(F)c(F)c(F)c(F)c3F)/C=C/C[C@@H]21` [E-03a, ethyl (1S,5R,8R,9S, E)-5-(((perfluorophenoxy)carbonyl)oxy)bicyclo[6.1.0]non-3-ene-9-carboxylate], the “release of PFP (pentafluorophenolate) after 20 minutes” value ([2]; 20 mM TCO, CDCl3, 20° C., 1.1 equiv tetrazine) is reported as “Almost complete release”, the “release upon tautomerization from the click product” value ([2]; lower temperatures, 40 mM, dipyridyl tetrazine) is reported as “instantaneous” and the “formation of pentafluorophenol from click conjugate” value ([2]; −20° C., 40 mM, dipyridyl tetrazine) is reported as “did not show any formation of pentafluorophenol”.
For `O=C(O)[C@H]1[C@@H]2CC[C@@H](O)/C=C/C[C@@H]21` [E-04a, (1S,5R,8R,9S, E)-5-hydroxybicyclo[6.1.0]non-3-ene-9-carboxylic acid], the “changes in the 1H-NMR spectrum after 7 days” value [3] was “no changes”.
With `CCOC(=O)[C@H]1[C@@H]2CC[C@@H](OC(=O)Nc3ccc4c(C)cc(=O)oc4c3)/C=C\C[C@@H]21` [E-022a, COOEt-Exo-Axial-TCO-AMC] the “Kelim. value of AMC release” value [4] was 2.96*10^−6 S^−1 and the “Kelim. value of AMC release” value ([5]; DM tetrazine, first-order one phase fit) was 8.15*10^−5 S^−1.
With `CCOC(=O)[C@H]1[C@@H]2CCC(OC(=O)Nc3ccc4c(C)cc(=O)oc4c3)/C=C\C[C@@H]21` (stereo partly drawn) [E-022b, COOEt-Exo-Equatorial-TCO-AMC] the “AMC release compared with E-022a” value ([5]; tetrazine (DM or BP) not specified) was “slower”.
In the case of `CCOC(=O)[C@H]1[C@@H]2CC[C@@H](OC(=O)N[C@H]3C[C@H](O[C@H]4C[C@](O)(C(=O)CO)Cc5c(O)c6c(c(O)c54)C(=O)c4c(OC)cccc4C6=O)O[C@@H](C)[C@@H]3O)/C=C\C[C@@H]21` [E-025a, COOEt-Exo-Axial-TCO-PNP], the “release of doxorubicin after addition of the tetrazine” value [6] is reported as “almost instant release”.

Source: patent US20240294457A1, “Strained bi-functionalized trans-cyclooctenes” (Stichting Radboud Universiteit, priority 2021, published 2024)
